Reference: patent US4470840A, “1-Triacontanol plant growth stimulator formulations” (Biochemical Research Corporation, priority 1981, dated 1984)

Tests used:
Assay type in all cases: in vivo
[1] = test system: Hybrid Sweet Corn Seedlings (cv. Silver Queen); test: Greenhouse trial: dry weight and water uptake of seedlings after foliar spraying; settings: for Increase in dry weight: 1-triacontanol 0.1 mg/liter, additive 9 mM (none in the last line); for % increase (dry weight) / % increase (water uptake) / Dry weight / Water uptake: metal ion 9 mM (none in the last line) with 1-triacontanol 0.1 mg/liter, pH 8 to 10; for Dry weight: control 0.86 g; for Water uptake: control 8.7 g
Description: (§1) In general, greenhouse trials were conducted as follows: eight to twelve seeds were sown per pot in Peat-Lite® Mix and received an average of 100 ml of water per day. After plants had the third true leaf (average), the various formulations were applied to the leaves as a fine mist at air temperatures listed in Table 1. Temperatures above 20° C., preferably 25°-30° C., are preferred.
(§2) The 1-triacontanol formulation most generally used consisted of a concentrate containing 5 mg of 1-triacontanol dissolved in 1 liter of acetone, with 20 ml of the concentrate being further dissolved to 1 liter with water having a pH between 8 and 10, with over a pH of 11 also being effective. The pH was adjusted with aqueous NaOH and the concentrate added just prior to spraying.
(§3) When other plant growth substances were added to the formulations, these were added either to the concentrate in the polar organic solvent or alternatively in the aqueous solution, depending on the solubility of the plant growth substance. All metal salts were added to the water used to spray the 1-triacontanol formulations. After spraying, preferably about four to nine days or more, plants were harvested with roots, and fresh weights were obtained. Plants were then dried in an oven, preferably at a temperature below 100° C., until constant weight was obtained, and dry weight values were obtained for each plot. Subtraction of the dry weights from the fresh weights gave the water uptake weights (water content) of each plot. The weights of the above mentioned seedlings were compared to the control weights to obtain the percent increases.
(§4) It is particularly advantageous to arrange each of the potted plants in size range categories corresponding to the number of replications used. For example, if five replications are employed, plants are divided into five size categories, normally measured by the height of the plants. Treatments are then assigned randomly within each block (size category). This removes the variation due to plant size for statistical purposes, as is well practiced in the art. The resulting data is analyzed using any appropriate means, which may include the least significant difference method (L.S.D. method), Duncan's multiple range test, as used here (Biometrics, 11: 1 (1955)), or other means.

[2] = test system: Field Corn Seedlings (cv. Trojan TXS 94, Pioneer 3780, WF9 X Bear 38); test: as above; settings: for Dry wt. increase: 1-triacontanol 0.1 mg/liter
Description: as §1, §2, §3, §4

[3] = test system: Hybrid Sweet Corn Seedlings (cv. Silver Queen); test: Lengths of stems and total plant length of seedlings sprayed Day 7; settings: T = 1-triacontanol 0.1 mg/liter; for Length "a" (stem to the first leaf): control 11.5 cm; for Length "b" (total plant length): control 25.0 cm
[4] = 14-day old seedlings, metal salt 1 mM (1 ea. for the mixture), with 1-triacontanol 0.1 mg/liter, Formulation 4
[5] = 14-day old seedlings, metal salt 5 mM, with 1-triacontanol 0.1 mg/liter, Formulation 4
[6] = 14-day old seedlings, metal salt 5 mM, with 1-triacontanol 0.1 mg/liter, Formulation 11 (chloroform, Tween-20)
[7] = 14-day old seedlings, metal salt 10 mM, with 1-triacontanol 0.1 mg/liter, Formulation 4
[8] = 14-day old seedlings, metal salt 10 mM, with 1-triacontanol 0.1 mg/liter, Formulation 11 (chloroform, Tween-20)
[9] = 14-day old seedlings, metal salt 10 mM, without 1-triacontanol, Formulation 4
[10] = cv. Trojan TXS 94, metal salt 1 mM (1 ea. for the mixture), Formulation 4
[11] = 14-day old seedlings, Formulation 4
[12] = 14-day old seedlings, plant growth substance 0.01 mM, with 1-triacontanol 0.1 mg/liter
[13] = 14-day old seedlings, plant growth substance 0.01 mM, without 1-triacontanol
[14] = plant growth substance 0.01 mM, CaCl2 10 mM, 1-triacontanol 0.5 mg per liter, pH 8
[15] = plant growth substance 0.01 mM, CaCl2 50 mM, 1-triacontanol 0.5 mg per liter, pH 8
[16] = plant growth substance 0.04 mM, CaCl2 10 mM, 1-triacontanol 0.5 mg per liter, pH 8
[17] = plant growth substance 0.04 mM, CaCl2 50 mM, 1-triacontanol 0.5 mg per liter, pH 8
[18] = cv. Trojan TXS 94, brassinosteroid 0.4 μM w/o triacontanol, Formulation 7
[19] = cv. Trojan TXS 94, brassinosteroid 0.4 μM with 1-triacontanol 0.5 mg/liter containing 10 mM CaCl2, Formulation 7
[20] = 14-day old seedlings, plant growth substance 0.10 mM, with 1-triacontanol 0.1 mg/liter
[21] = 14-day old seedlings, plant growth substance 0.10 mM, without 1-triacontanol
[22] = plant growth substance 0.001 mM, CaCl2 50 mM, 1-triacontanol 0.5 mg per liter, pH 8
[23] = plant growth substance 0.10 mM, CaCl2 50 mM, 1-triacontanol 0.5 mg per liter, pH 8

[Ca+2].[Cl-].[Cl-] [CaCl2]
Increase in dry weight ([1]; Formulation 4): +50% | Increases, H2O uptake [1, 4]: +35% | Increases, dry wt. [1, 4]: +42% | Increases, H2O uptake [1, 5]: +21% | Increases, dry wt. [1, 5]: +50% | Increases, H2O uptake [1, 6]: +6% | Increases, dry wt. [1, 6]: +5% | Increases, H2O uptake [1, 7]: +11% | Increases, dry wt. [1, 7]: +65% | Increases, H2O uptake [1, 8]: +9% | Increases, dry wt. [1, 8]: -5% | Increases, H2O uptake [1, 9]: -2% | Increases, dry wt. [1, 9]: +4% | Dry wt. increase ([2]; cv. Pioneer 3780, metal salt 0 mM, Formulation 11): -5% | Dry wt. increase ([2]; cv. Pioneer 3780, metal salt 1 mM, Formulation 4): +19% | Dry wt. increase ([2]; cv. Pioneer 3780, metal salt 7.5 mM, Formulation 4, NAA 1.0 μM): +32% | Dry wt. increase ([2]; cv. Trojan TXS 94, metal salt 0.5 mM, Formulation 4): +22% | Dry wt. increase [2, 10]: 20-30% | Dry wt. increase ([2]; cv. Trojan TXS 94, metal salt 1 mM, Formulation 11): -10% | Dry wt. increase ([2]; cv. Trojan TXS 94, metal salt 1.25 mM, Formulation 4): +30% | Dry wt. increase ([2]; cv. Trojan TXS 94, metal salt 5 mM, Formulation 7, 2,4,5-T 10.0 μM): +22% | Dry wt. increase ([2]; cv. Trojan TXS 94, metal salt 5 mM, Formulation 7, 2,4-D 10.0 μM): +23% | Dry wt. increase ([2]; cv. Trojan TXS 94, metal salt 6 mM, Formulation 7, NAA 1.0 μM): +28% | Dry wt. increase ([2]; cv. Trojan TXS 94, metal salt 3-5 mM, Formulation 7, IAA 10.0 μM): 20-30% | Dry wt. increase ([2]; cv. WF9 X Bear 38, metal salt 1 mM, Formulation 4): +8%

[Ca+2] [Ca^+2]
% increase (dry weight) [1, 11]: +50% | % increase (water uptake) [1, 11]: +16% | Dry weight [1, 11]: 1.29 g | Water uptake [1, 11]: 10.1 g

c1coc(CNc2ncnc3nc[nH]c23)c1 [Kinetin, 6-furfurylamino purine, reference compound]
Increase in length "a" [3]: 0% | Increase in length "b" [3]: +30% | Length "a" (stem to the first leaf) [3]: 11.5 cm | Length "b" (total plant length) [3]: 32.5 cm | Increases, H2O uptake [1, 12]: +14% | Increases, dry wt. [1, 12]: -21% | Increases, H2O uptake [1, 13]: -3% | Increases, dry wt. [1, 13]: -24% | Increases, H2O uptake [1, 14]: +13% | Increases, dry wt. [1, 14]: +3% | Increases, H2O uptake [1, 15]: -2% | Increases, dry wt. [1, 15]: +1%

[Mg+2] [Mg^+2]
% increase (dry weight) [1, 11]: +73% | % increase (water uptake) [1, 11]: +55% | Dry weight [1, 11]: 1.49 g | Water uptake [1, 11]: 13.5 g

[Mn+2] [Mn^+2]
% increase (dry weight) [1, 11]: +31% | % increase (water uptake) [1, 11]: +25% | Dry weight [1, 11]: 1.13 g | Water uptake [1, 11]: 10.9 g

[Pb+2] [Pb^+2]
% increase (dry weight) [1, 11]: +81% | % increase (water uptake) [1, 11]: +55% | Dry weight [1, 11]: 1.56 g | Water uptake [1, 11]: 13.5 g

N.N.N.N.N.N.[Cl-].[Cl-].[Cl-].[Co+3] [Co(NH3)6 Cl3, reference compound]
Increase in dry weight ([1]; Formulation 4): +13%

[Sr+2] [Sr^+2]
% increase (dry weight) [1, 11]: +81% | % increase (water uptake) [1, 11]: +48% | Dry weight [1, 11]: 1.56 g | Water uptake [1, 11]: 12.9 g

[Cl][Mn][Cl] [MnCl2]
Increases, H2O uptake [1, 4]: +29% | Increases, dry wt. [1, 4]: +9%

[Zn+2] [Zn^+2]
% increase (dry weight) [1, 11]: +38% | % increase (water uptake) [1, 11]: +21% | Dry weight [1, 11]: 1.17 g | Water uptake [1, 11]: 10.5 g

[Ba+2] [Ba^+2]
% increase (dry weight) [1, 11]: +35% | % increase (water uptake) [1, 11]: +48% | Dry weight [1, 11]: 1.16 g | Water uptake [1, 11]: 12.9 g

[Cl][La]([Cl])[Cl] [LaCl3]
Increases, dry wt. [1, 7]: +72% | Increases, H2O uptake [1, 9]: -2% | Increases, dry wt. [1, 9]: +5% | Dry wt. increase [2, 10]: 25-30%

C=C1C[C@]23C[C@@]1(O)CC[C@H]2[C@@]12C=C[C@H](O)[C@@](C)(C(=O)O1)[C@H]2[C@@H]3C(=O)O [GA3, gibberellic acid, reference compound]
Increase in length "a" [3]: -3% | Increase in length "b" [3]: +6% | Length "a" (stem to the first leaf) [3]: 11.2 cm | Length "b" (total plant length) [3]: 26.6 cm | Increases, H2O uptake [1, 12]: -3% | Increases, dry wt. [1, 12]: -15% | Increases, H2O uptake [1, 13]: -6% | Increases, dry wt. [1, 13]: -24% | Increases, H2O uptake [1, 16]: +15% | Increases, dry wt. [1, 16]: +16% | Increases, H2O uptake [1, 17]: +13% | Increases, dry wt. [1, 17]: +22%

CC(C)[C@@H](C)[C@H](O)[C@@H](O)[C@@H](C)[C@H]1CC[C@H]2[C@@H]3COC(=O)[C@H]4C[C@H](O)[C@H](O)C[C@]4(C)[C@H]3CC[C@]12C [Brassinosteroid, 2α,3α,22α,23α-tetrahydroxy-24α-methyl-B-hoo-5α-cholestan-6-one, reference compound]
Increases, dry wt. [2, 18]: +11% | Increases, water uptake [2, 18]: +8% | Increases, dry wt. [2, 19]: +19% | Increases, water uptake [2, 19]: +10%

O=c1ccc(=O)[nH][nH]1 [MH, maleic hydrazide, reference compound]
Increases, H2O uptake [1, 20]: -7% | Increases, dry wt. [1, 20]: +12% | Increases, H2O uptake [1, 21]: -1% | Increases, dry wt. [1, 21]: +7%

CC(C)CC(N)C(=O)[O-].CC(C)CC(N)C(=O)[O-].[Ca+2] (stereo not shown) [Metal Proteinate, reference compound]
Increase in dry weight ([1]; Formulation 4): +15%

O=S(=O)([O-])[O-].O=S(=O)([O-])[O-].[Ce+4] [Ce(SO4)2]
Increases, H2O uptake [1, 4]: +26% | Increases, dry wt. [1, 4]: +21%

[Cl-].[Cl-].[Mg+2] [MgCl2]
Increases, H2O uptake [1, 4]: +20% | Increases, dry wt. [1, 4]: +21%

O=C(O)Cc1c[nH]c2ccccc12 [IAA, indole-3-acetic acid, reference compound]
Increase in length "a" [3]: 0% | Increase in length "b" [3]: -2% | Length "a" (stem to the first leaf) [3]: 11.6 cm | Length "b" (total plant length) [3]: 24.4 cm | Increases, H2O uptake [1, 12]: -5% | Increases, dry wt. [1, 12]: +2% | Increases, H2O uptake [1, 13]: -7% | Increases, dry wt. [1, 13]: +4% | Increases, H2O uptake [1, 22]: +18% | Increases, dry wt. [1, 22]: +37% | Increases, H2O uptake [1, 15]: +25% | Increases, dry wt. [1, 15]: +56% | Increases, H2O uptake [1, 23]: +14% | Increases, dry wt. [1, 23]: +36%

O=C(O)COc1ccc(Cl)cc1Cl [2,4-D, 2,4-dichlorophenoxyacetic acid, reference compound]
Increases, H2O uptake [1, 12]: -13% | Increases, dry wt. [1, 12]: +17% | Increases, H2O uptake [1, 13]: -9% | Increases, dry wt. [1, 13]: +10% | Increase in dry weight over controls ([1]; formulations containing metal ions and synthetic auxin, cv. Silver Queen): 100%

[Cd+2] [Cd^+2]
% increase (dry weight) [1, 11]: +58% | % increase (water uptake) [1, 11]: +14% | Dry weight [1, 11]: 1.36 g | Water uptake [1, 11]: 9.9 g

O=C(O)c1cc(I)cc(I)c1I [TIBA, 2,3,5-triiodobenzoic acid, reference compound]
Increases, H2O uptake [1, 20]: +1% | Increases, dry wt. [1, 20]: +19% | Increases, H2O uptake [1, 21]: -12% | Increases, dry wt. [1, 21]: +10%
